Values of other authors as cited in patent US20090155200A1, “Methods of promoting cartilage healing or cartilage integration” (priority 2004, published 2009).

Test system: articular cartilage defect
Conditions: pre-treatment with trypsin; Chen et al. 2000

## trypsin
  integration and remodeling of implanted cartilage: improved
